{
  "source": "paper PMC3701070",
  "about": "(PLoS ONE, 2013)",
  "key": {"ALK5": {"molecular_target": "ALK5 (Homo sapiens, UniProt P36897)", "sequence (P36897 34-503, species assumed)": "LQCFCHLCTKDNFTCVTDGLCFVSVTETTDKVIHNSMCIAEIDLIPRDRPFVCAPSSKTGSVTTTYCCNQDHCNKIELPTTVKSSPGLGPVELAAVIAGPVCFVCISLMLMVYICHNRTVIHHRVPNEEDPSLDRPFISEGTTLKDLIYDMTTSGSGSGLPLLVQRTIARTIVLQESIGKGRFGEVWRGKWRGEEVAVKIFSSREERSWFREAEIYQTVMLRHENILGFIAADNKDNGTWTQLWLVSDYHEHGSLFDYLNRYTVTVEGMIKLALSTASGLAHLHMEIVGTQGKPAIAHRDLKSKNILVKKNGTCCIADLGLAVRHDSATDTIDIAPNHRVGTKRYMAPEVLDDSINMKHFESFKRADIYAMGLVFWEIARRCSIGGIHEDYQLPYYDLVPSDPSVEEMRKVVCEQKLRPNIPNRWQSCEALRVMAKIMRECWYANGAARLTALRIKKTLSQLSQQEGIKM", "assay": "ALK5 cell-based assay"}, "T-84": {"tested_on": "T-84", "assay": "Cell growth assay", "format": "cell-based", "settings": "Homo sapiens, T84, 72 h; T-84, RAF WT, KRAS(G13D), 3-day; read-out: gIC50", "method_in_brief": "(§1)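 Inhibition of cell growth is given as gIC50. It was measured by CellTiter-Glo at t = 0 and 72 h.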"}, "ES-2": {"tested_on": "ES-2", "assay": "Cell growth assay", "format": "cell-based", "settings": "Homo sapiens, 72 h; ES-2, BRAF(V600E), RAS WT, 3-day; read-out: gIC50", "method_in_brief": "as §1"}, "DU-145": {"tested_on": "DU-145", "assay": "Cell growth assay", "format": "cell-based", "settings": "Homo sapiens, 72 h; DU-145, RAF WT, RAS WT, 3-day; read-out: gIC50", "method_in_brief": "as §1"}, "HCC-70": {"tested_on": "HCC-70", "assay": "Cell growth assay", "format": "cell-based", "settings": "Homo sapiens, HCC70, 72 h; HCC-70, RAF WT, RAS WT, 3-day; read-out: gIC50", "method_in_brief": "as §1"}, "NCI-H661": {"tested_on": "NCI-H661", "assay": "Cell growth assay", "format": "cell-based", "settings": "Homo sapiens, 72 h; NCI-H661, RAF WT, RAS WT, 3-day; read-out: gIC50", "method_in_brief": "as §1"}, "HMCB": {"tested_on": "HMCB", "assay": "Cell growth assay", "format": "cell-based", "settings": "Homo sapiens, 72 h, RAF WT, RAS WT, 3-day, read-out: gIC50", "method_in_brief": "as §1"}, "SK-N-F1": {"tested_on": "SK-N-F1", "assay": "Cell growth assay", "format": "cell-based", "settings": "Homo sapiens, 72 h; SK-N-F1, RAF WT, RAS WT, 3-day; read-out: gIC50", "method_in_brief": "as §1"}, "GCT": {"tested_on": "GCT", "assay": "Cell growth assay", "format": "cell-based", "settings": "Homo sapiens, 72 h, BRAF(V600E), RAS WT, 3-day, read-out: gIC50", "method_in_brief": "as §1"}, "ST486": {"tested_on": "ST486", "assay": "Cell growth assay", "format": "cell-based", "settings": "Homo sapiens, 72 h; ST486, RAF WT, RAS WT, 3-day; read-out: gIC50", "method_in_brief": "as §1"}, "NCI-H526": {"tested_on": "NCI-H526", "assay": "Cell growth assay", "format": "cell-based", "settings": "Homo sapiens, 72 h; NCI-H526, RAF WT, RAS WT, 3-day; read-out: gIC50", "method_in_brief": "as §1"}, "NCI-H209": {"tested_on": "NCI-H209", "assay": "Cell growth assay", "format": "cell-based", "settings": "Homo sapiens, 72 h; NCI-H209, RAF WT, RAS WT, 3-day; read-out: gIC50", "method_in_brief": "as §1"}, "GDM-1": {"tested_on": "GDM-1", "assay": "Cell growth assay", "format": "cell-based", "settings": "Homo sapiens, 72 h; GDM-1, RAF WT, RAS WT, 3-day; read-out: gIC50", "method_in_brief": "as §1"}, "SCC-15": {"tested_on": "SCC-15", "assay": "Cell growth assay", "format": "cell-based", "settings": "Homo sapiens, 72 h; SCC-15, RAF WT, RAS WT, 3-day; read-out: gIC50", "method_in_brief": "as §1"}, "SF-295": {"tested_on": "SF-295", "assay": "Cell growth assay", "format": "cell-based", "settings": "Homo sapiens, 72 h; SF-295, RAF WT, RAS WT, 3-day; read-out: gIC50", "method_in_brief": "as §1"}, "A427": {"tested_on": "A427", "assay": "Cell growth assay", "format": "cell-based", "settings": "Homo sapiens, A-427, 72 h; A427, RAF WT, RAS WT, 3-day; read-out: gIC50", "method_in_brief": "as §1"}, "BC-3": {"tested_on": "BC-3", "assay": "Cell growth assay", "format": "cell-based", "settings": "Homo sapiens, 72 h; BC-3, RAF WT, RAS WT, 3-day; read-out: gIC50", "method_in_brief": "as §1"}, "NCI-H358": {"tested_on": "NCI-H358", "assay": "Cell growth assay", "format": "cell-based", "settings": "Homo sapiens, 72 h; NCI-H358, RAF WT, RAS WT, 3-day; read-out: gIC50", "method_in_brief": "as §1"}, "SN12C": {"tested_on": "SN12C", "assay": "Cell growth assay", "format": "cell-based", "settings": "Homo sapiens, 72 h, RAF WT, RAS WT, 3-day, read-out: gIC50", "method_in_brief": "as §1"}, "CRO-AP2": {"tested_on": "CRO-AP2", "assay": "Cell growth assay", "format": "cell-based", "settings": "Homo sapiens, 72 h; CRO-AP2, RAF WT, RAS WT, 3-day; read-out: gIC50", "method_in_brief": "as §1"}, "NCI-ADR/RES": {"tested_on": "NCI-ADR/RES", "assay": "Cell growth assay", "format": "cell-based", "settings": "Homo sapiens, 72 h, RAF WT, RAS WT, 3-day, read-out: gIC50", "method_in_brief": "as §1"}, "OE-33": {"tested_on": "OE-33", "assay": "Cell growth assay", "format": "cell-based", "settings": "Homo sapiens, OE33, 72 h; OE-33, RAF WT, RAS WT, 3-day; read-out: gIC50", "method_in_brief": "as §1"}, "RD-ES": {"tested_on": "RD-ES", "assay": "Cell growth assay", "format": "cell-based", "settings": "Homo sapiens, 72 h, RAF WT, RAS WT, 3-day, read-out: gIC50", "method_in_brief": "as §1"}, "NCI-H716": {"tested_on": "NCI-H716", "assay": "Cell growth assay", "format": "cell-based", "settings": "Homo sapiens, 72 h; NCI-H716, RAF WT, RAS WT, 3-day; read-out: gIC50", "method_in_brief": "as §1"}, "NCI-H2122": {"tested_on": "NCI-H2122", "assay": "Cell growth assay", "format": "cell-based", "settings": "Homo sapiens, 72 h; NCI-H2122, RAF WT, RAS WT, 3-day; read-out: gIC50", "method_in_brief": "as §1"}, "ARH-77": {"tested_on": "ARH-77", "assay": "Cell growth assay", "format": "cell-based", "settings": "Homo sapiens, 72 h; ARH-77, RAF WT, RAS WT, 3-day; read-out: gIC50", "method_in_brief": "as §1"}, "SNB-19": {"tested_on": "SNB-19", "assay": "Cell growth assay", "format": "cell-based", "settings": "Homo sapiens, 72 h; SNB-19, RAF WT, RAS WT, 3-day; read-out: gIC50", "method_in_brief": "as §1"}, "Hep3B": {"tested_on": "Hep3B", "assay": "Cell growth assay", "format": "cell-based", "settings": "Homo sapiens, 72 h, RAF WT, RAS WT, 3-day, read-out: gIC50", "method_in_brief": "as §1"}, "MES-SA": {"tested_on": "MES-SA", "assay": "Cell growth assay", "format": "cell-based", "settings": "Homo sapiens, 72 h, RAF WT, RAS WT, 3-day, read-out: gIC50", "method_in_brief": "as §1"}, "NCI-H146": {"tested_on": "NCI-H146", "assay": "Cell growth assay", "format": "cell-based", "settings": "Homo sapiens, 72 h; NCI-H146, RAF WT, RAS WT, 3-day; read-out: gIC50", "method_in_brief": "as §1"}, "FaDu": {"tested_on": "FaDu", "assay": "Cell growth assay", "format": "cell-based", "settings": "Homo sapiens, 72 h, RAF WT, RAS WT, 3-day, read-out: gIC50", "method_in_brief": "as §1"}, "C32TG": {"tested_on": "C32TG", "assay": "Cell growth assay", "format": "cell-based", "settings": "Homo sapiens, 72 h, BRAF(V600E), RAS WT, 3-day, read-out: gIC50", "method_in_brief": "as §1"}, "SKOV-3": {"tested_on": "SKOV-3", "assay": "Cell growth assay", "format": "cell-based", "settings": "Homo sapiens, SK-OV-3, 72 h; SKOV-3, RAF WT, RAS WT, 3-day; read-out: gIC50", "method_in_brief": "as §1"}, "PKD2 (h)": {"molecular_target": "T1, PKD2 (h) (Homo sapiens, UniProt Q9BZL6)", "T1 construct": "purchased Millipore", "T1 sequence (Q9BZL6 whole entry)": "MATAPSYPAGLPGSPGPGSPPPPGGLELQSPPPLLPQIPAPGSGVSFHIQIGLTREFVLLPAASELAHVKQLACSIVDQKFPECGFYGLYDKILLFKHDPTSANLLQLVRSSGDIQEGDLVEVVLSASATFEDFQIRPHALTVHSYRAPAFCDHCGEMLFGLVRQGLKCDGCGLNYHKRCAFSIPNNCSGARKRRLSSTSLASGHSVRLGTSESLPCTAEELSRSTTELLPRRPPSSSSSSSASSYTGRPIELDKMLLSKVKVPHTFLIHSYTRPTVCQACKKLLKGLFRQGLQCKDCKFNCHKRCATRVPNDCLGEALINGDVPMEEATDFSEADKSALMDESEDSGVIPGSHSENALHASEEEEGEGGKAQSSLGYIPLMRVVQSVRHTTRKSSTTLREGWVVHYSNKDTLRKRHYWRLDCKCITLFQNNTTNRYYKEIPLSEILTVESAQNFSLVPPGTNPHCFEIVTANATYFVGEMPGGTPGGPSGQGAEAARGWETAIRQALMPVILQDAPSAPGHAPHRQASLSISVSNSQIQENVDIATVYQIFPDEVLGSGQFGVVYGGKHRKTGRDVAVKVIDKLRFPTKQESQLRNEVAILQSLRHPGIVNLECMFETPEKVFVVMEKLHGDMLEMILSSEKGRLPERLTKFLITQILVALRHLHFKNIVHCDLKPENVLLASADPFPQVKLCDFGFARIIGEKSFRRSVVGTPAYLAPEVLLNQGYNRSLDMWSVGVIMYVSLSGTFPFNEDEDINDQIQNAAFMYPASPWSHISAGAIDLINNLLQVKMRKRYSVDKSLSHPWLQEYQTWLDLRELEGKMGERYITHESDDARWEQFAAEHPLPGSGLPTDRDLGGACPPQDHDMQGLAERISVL", "assay": "Kinase panel (Millipore) enzyme activity", "format": "biochemical"}},
  "data": [
    {"smiles": "CC(C)(C)c1nc(-c2cccc(NS(=O)(=O)c3c(F)cccc3F)c2F)c(-c2ccnc(N)n2)s1", "note": "[dabrafenib]", "values": [
      {"measurement": "ALK5 inhibition in cell-based assay", "setting": "ALK5", "value": "absence of ALK5 inhibition"},
      {"measurement": "IC50", "setting": "T-84", "value": "> 10", "unit": "µM"},
      {"measurement": "IC50", "setting": "ES-2", "value": 0.053, "unit": "µM"},
      {"measurement": "IC50", "setting": "DU-145", "value": "> 10", "unit": "µM"},
      {"measurement": "IC50", "setting": "HCC-70", "value": "> 10", "unit": "µM"},
      {"measurement": "IC50", "setting": "NCI-H661", "value": "> 10", "unit": "µM"},
      {"measurement": "IC50", "setting": "HMCB", "value": "> 10", "unit": "µM"},
      {"measurement": "IC50", "setting": "SK-N-F1", "value": "> 10", "unit": "µM"},
      {"measurement": "IC50", "setting": "GCT", "value": "> 10", "unit": "µM"},
      {"measurement": "IC50", "setting": "ST486", "value": "> 10", "unit": "µM"},
      {"measurement": "IC50", "setting": "NCI-H526", "value": "> 10", "unit": "µM"},
      {"measurement": "IC50", "setting": "NCI-H209", "value": "> 10", "unit": "µM"},
      {"measurement": "IC50", "setting": "GDM-1", "value": 2, "unit": "µM"},
      {"measurement": "IC50", "setting": "SCC-15", "value": "> 10", "unit": "µM"},
      {"measurement": "IC50", "setting": "SF-295", "value": "> 10", "unit": "µM"},
      {"measurement": "IC50", "setting": "A427", "value": "> 10", "unit": "µM"},
      {"measurement": "IC50", "setting": "BC-3", "value": 0.277, "unit": "µM"},
      {"measurement": "IC50", "setting": "NCI-H358", "value": "> 10", "unit": "µM"},
      {"measurement": "IC50", "setting": "SN12C", "value": "> 10", "unit": "µM"},
      {"measurement": "IC50", "setting": "CRO-AP2", "value": "> 10", "unit": "µM"},
      {"measurement": "IC50", "setting": "NCI-ADR/RES", "value": "> 10", "unit": "µM"},
      {"measurement": "IC50", "setting": "OE-33", "value": "> 10", "unit": "µM"},
      {"measurement": "IC50", "setting": "RD-ES", "value": "> 10", "unit": "µM"},
      {"measurement": "IC50", "setting": "NCI-H716", "value": "> 10", "unit": "µM"},
      {"measurement": "IC50", "setting": "NCI-H2122", "value": "> 10", "unit": "µM"},
      {"measurement": "IC50", "setting": "ARH-77", "value": "> 10", "unit": "µM"},
      {"measurement": "IC50", "setting": "SNB-19", "value": "> 10", "unit": "µM"},
      {"measurement": "IC50", "setting": "Hep3B", "value": "> 10", "unit": "µM"},
      {"measurement": "IC50", "setting": "MES-SA", "value": 6.99, "unit": "µM"},
      {"measurement": "IC50", "setting": "NCI-H146", "value": "> 10", "unit": "µM"},
      {"measurement": "IC50", "setting": "FaDu", "value": "> 10", "unit": "µM"},
      {"measurement": "IC50", "setting": "C32TG", "value": 0.001, "unit": "µM"},
      {"measurement": "IC50", "setting": "SKOV-3", "value": "> 10", "unit": "µM"},
      {"measurement": "IC50", "setting": "PKD2 (h)", "value": 0.057, "unit": "µM"}
    ]}
  ]
}
